Each structure is given as a SMILES string.

Here are results for 1 compound from US6541492B1, “Thiazole derivatives as PPAR gamma ligands” (SmithKline Beecham Corporation, priority 1999, dated 2003).

Data set [1] relates to C3H10T1/2 clone 8 murine fibroblasts. Briefly: Osteoblast differentiation assay (alkaline phosphatase activity). The class given is cell-based. As to the method: C3H10T1/2 clone 8 murine fibroblasts (American Type Culture Collection) below passage 22 were maintained in Dulbecco's modified Eagle's medium (Life Technologies, Inc.) supplemented with 10% fetal calf serum and 100 units/mL penicillin G and 100 microgram/mL streptomycin. One day after passage into 96-well microtiter plates (12.5×10^3 cells/cm^2), the cells were treated with 625 nanomolar all-trans retinoic acid, 1 micromolar rosiglitazone and 1 micromolar insulin (Sigma, St. Louis, Mo.). Vehicle or test compounds, which had been solublized to 10 mM in DMSO and then serially diluted from 2e-5 M to 4e-8 M into medium, were added. After 7 days, alkaline phosphatase activity, a surrogate measure for osteogenesis, was determined using Sigma-Fast pNPP substrate (N-2770) according to the manufacturer's specifications (Sigma, St. Louis, Mo.) (see Paulik, M. A. and Lenhard, J. M., Cell Tissue Res., (1997), Vol. 290, pp 79-87). The substrate (50 microliters/well) was incubated with the cells at 37° C. for 10 min and the absorbance read at 405 nm. The % maximum stimulation of alkaline phosphatase activity was calculated relative to cells treated with 10 micromolar all-trans retinoic acid.

A further data set has as its system C57BL/KsJ db/db mice. Kind of data set: In vivo assay in db/db mice. The following applies: male db/db mice, 50 mg/kg oral once daily, mean ± standard error. As to the method: Age and weight matched male C57BL/KsJ db/db mice (Jackson Labs, Bar Harbor, Me.) were housed 5 animals/cage at 72° F. and 50% relative humidity with a 12 h light and dark cycle, and fed chow diet (NIH R&M/Auto 6F-Ovals 5K67, PMI Feeds® Inc., Richmond, Ind.). Animals starting at 6 weeks of age were orally gavaged once daily (8:00-9:00 AM) with TPGS/PG (25/75) or 50 mg/kg the compound of Example 4 in TPGS/PG (25/75). After 2 weeks of dosing, the animals were anesthetized with isofluorane, blood was drawn by cardiac puncture, and non-fasting measurements of glucose, insulin, and glycosylated hemoglobin (GHB) were obtained. Blood glucose was determined using an automated chemistry analyzer (Technicon Axon). GHB measurements were performed using a Columnmate Analyzer (Helena Instrument). Insulin concentrations in serum were measured by chemiluminescence using an Origen Analyzer (Igen Inc.). Body weights were recorded at the beginning and end of the study. All data was calculated as the mean and standard error from experiments performed on ≧9 animals per treatment group.

For `CCCCCC[C@@H]1S[C@@H](CC(=O)N(CCCC)CCCC)C(=O)N1CCCCc1ccc(C(=O)O)cc1` (relative stereo) [Example 4, (2S*,5S*)-4-(4-(4-Carboxyphenyl)butyl)-2-hexyl-4-oxo-5-thiazolidine N,N-Dibutylacetamide], the “% Stimulation” value in data set [1] (% maximum stimulation of alkaline phosphatase activity relative to cells treated with 10 micromolar all-trans retinoic acid) is 71%. In addition, the pEC50 (in general, the negative decadic logarithm of the EC50, by convention in mol/L) in data set [1] (alkaline phosphatase activity after 7 days, with 625 nanomolar all-trans retinoic acid, 1 micromolar rosiglitazone, 1 micromolar insulin) amounted to 5.7. The GBH in the data set with C57BL/KsJ db/db mice (glycosylated hemoglobin, 2 weeks) worked out at 6.6 ± 0.3%. In the data set with C57BL/KsJ db/db mice (2 weeks, non-fasting blood), this compound came in with a Glucose of 380 ± 30 mg/dL. For the same compound, the “Body Weight Change” value in the data set with C57BL/KsJ db/db mice (beginning to end of 2 week study) came to 1.1 ± 0.5 g.
